Assay results: patent US7569724B2, “Carbamic acid compounds comprising an amide linkage as HDAC inhibitors” (Topotarget UK Limited, priority 2000, dated 2009)
Counter-ions that a name gives are not always drawn. Like-named read-outs stand apart in the source and are kept apart here.

How the values were obtained:
[1] = system: HDAC (HeLa cell extract); test: Primary assay: deacetylase activity, HeLa cell extract as source of HDAC; format: biochemical, human; conditions: HeLa cell extract; for HDAC Inhibition HeLa, percent / percent HDAC inhibition at the stated concentration: @ 500 nM
Description: Briefly, this assay relies on the release of radioactive acetate from a radioactively labelled histone fragment by the action of HDAC enzyme. Test compounds, which inhibit HDAC, reduce the yield of radioactive acetate. Signal (e.g., scintillation counts) measured in the presence and absence of a test compound provide an indication of that compound's ability to inhibit HDAC activity. Decreased activity indicates increased inhibition by the test compound.
The histone fragment was an N-terminal sequence from histone H4, and it was labelled with radioactively labelled acetyl groups using tritiated acetylcoenzyme A (coA) in conjunction with an enzyme which is the histone acetyltransferase domain of the transcriptional coactivator p300. […] The acetylated peptide was then separated from free acetyl coA by size exclusion chromatography on Sephadex G-15 (Sigma G-15-120), using distilled H2O as the mobile phase.
After purification of the radiolabelled histone fragment, it was incubated with a source of HDAC (e.g., an extract of HeLa cells (a rich source of HDAC), recombinantly produced HDAC1 or HDAC2) and any released acetate was extracted into an organic phase and quantitatively determined using scintillation counting. By including a test compound with the source of HDAC, that compound's ability to inhibit the HDAC was determined.
The HeLa cell extract was made from HeLa cells (ATCC Ref. No. CCL-2) by freeze-thawing three times in 60 mM TrisCl pH 8.0, 450 mM NaCl, 30% glycerol. Two cell volumes of extraction buffer were used, and particulate material was centrifuged out (20800 g, 4° C., 10 min). The supernatant extract having deacetylase activity was aliquotted and frozen for storage.
A source of HDAC (e.g., 2 μL of crude HeLa extract, 5 μL of HDAC1 or HDAC2; in elution buffer, as above) was incubated with 3 μL of radioactively labelled peptide along with appropriate dilutions of candidate compounds (1.5 μL) in a total volume of 150 μL of buffer (20 mM Tris pH 7.4, 10% glycerol). The reaction was carried out at 37° C. for one hour, after which the reaction was stopped by adding 20 μL of 1 M HCl/0.4 M sodium acetate. […] Radioactivity was measured using a Tri-Carb 2100TR Liquid Scintillation Analyzer (Packard).
Percent activity (% activity) for each test compound was calculated as: % activity={(S^C−B)/(S^o−B)}×100 wherein S^C denotes signal measured in the presence of enzyme and the compound being tested, S^o denotes signal measured in the presence of enzyme but in the absence of the compound being tested, and B denotes the background signal measured in the absence of both enzyme and compound being tested.

[2] = system: HeLa cells; test: Secondary assay: cell proliferation WST-1, HeLa; format: cell-based; conditions: Homo sapiens, 48 h, read-out: Cell Proliferation Inhibition WST-1 (IC50 unless otherwise specified) HeLa
Procedure: Compounds with HDAC inhibition activity, as determined using the primary assay, were subsequently evaluated using secondary cell-based assays. The following cell lines were used:
HeLa—Human cervical adenocarcinoma cell line (ATCC ref. No. CCL-2).
Cells were plated in 96-well plates at 3-10×10^3 cells/well in 100 μL of culture medium. The following day, different concentrations of candidate compounds were added and the cells incubated at 37° C. for 48 h. Subsequently, 10 μL/well of WST-1 reagent was added and the cells reincubated for 1 hour. After the incubation time, absorbance was measured.
WST-1 is a tetrazolium salt which is cleaved to formazan dye by cellular enzymes. An expansion in the number of viable cells results in an increase in the overall activity of mitochondrial dehydrogenases in the sample. This augmentation in the enzyme activity leads to an increase in the amount of formazan dye formed, which directly correlates to the number of metabolically active cells in the culture. The formazan dye produced is quantified by a scanning multiwell spectrophotometer by measuring the absorbance of the dye solution at 450 nm wavelength (reference wavelength 690 nm).
Percent activity (% activity) in reducing the number of viable cells was calculated for each test compound as: % activity={(S^C−B)/(S^o−B)}×100 wherein S^C denotes signal measured in the presence of the compound being tested, S^o denotes signal measured in the absence of the compound being tested, and B denotes the background signal measured in blank wells containing medium only.
IC50 values were calculated using the software package Prism 3.0 (GraphPad software Inc., San Diego, Calif.), setting top value at 100 and bottom value at 0.

[3] = read-out: HDAC Inhibition (IC50 unless otherwise specified) HeLa

melting point | Structure (SMILES) | HDAC Inhibition HeLa, percent [1] | also measured
168 to 170 °C | O=C(/C=C/c1ccncc1)NCCCCCC(=O)NO (as salt: oxalate) [PX106521, (E)-N-(5-Hydroxycarbamoylpentyl)-3-pyridin-4-yl-acrylamide oxalate] | – | –
126 to 128 °C | O=C(/C=C/c1ccccn1)NCCCCCC(=O)NO (as salt: oxalate) [PX106528, (E)-N-(5-Hydroxycarbamoylpentyl)-3-pyridin-2-yl-acrylamide oxalate] | – | –
157 to 159 °C | O=C(/C=C/c1cccnc1)NCCCCCC(=O)NO (as salt: oxalate) [PX116231, E-N-(5-Hydroxycarbamoyl-pentyl)-3-pyridin-3-yl-acrylamide oxalate] | – | –
127 to 128 °C | O=C(CCCCCNC(=O)CCc1ccco1)NO [PX105827, 6-(3-Furan-2-yl-propionylamino)-hexanoic acid hydroxyamide] | 34% @ 500 nM | percent HDAC inhibition at the stated concentration ([1]; comparative tables): 34% @ 500 nM
226 to 227 °C | O=C(CCCCCNC(=O)Cc1ccc(-c2ccccc2)cc1)NO [PX106488, 6-(2-Biphenyl-4-yl-acetylamino)-hexanoic acid hydroxyamide] | 51% @ 500 nM | percent HDAC inhibition at the stated concentration ([1]; comparative tables): 51% @ 500 nM
155 to 156 °C | O=C(CCCCNC(=O)c1ccc2ccccc2c1)NO [PX106492, Naphthalene-2-carboxylic acid (4-hydroxycarbamoyl-butyl)-amide] | 42% @ 500 nM | –
168 to 169 °C | O=C(CCCCCNC(=O)c1ccc(I)cc1)NO [PX106494, N-(5-Hydroxycarbamoylpentyl)-4-iodobenzamide] | – | IC50 [1, 3]: 100 nM
139.5 to 141 °C | O=C(CCCCCNC(=O)c1ccc([N+](=O)[O-])cc1)NO [PX106495, N-(5-Hydroxycarbamoylpentyl)-4-nitrobenzamide] | 34% @ 500 nM | –
234 to 236 °C | N#Cc1ccc(C(=O)NCCCCCC(=O)NO)cc1 [PX106497, 4-Cyano-N-(5-hydroxycarbamoylpentyl)-benzamide] | 30% @ 500 nM | –
107 °C | O=C(CCCCCNC(=O)CCc1ccccc1)NO [PX106516, 6-(3-Phenylpropionylamino)hexanoic acid hydroxyamide] | 27% @ 500 nM | –
152 to 154 °C | COc1ccc(/C=C/C=C/C(=O)NCCCCCC(=O)NO)cc1 [PX106524, (2E,4E)-(4-Methoxyphenyl)penta-2,4-dienoic acid (5-hydroxycarbamoylpentyl)-amide] | 57% @ 500 nM | –
127 to 128 °C | O=C(CCCCCNC(=O)C/C=C/c1ccccc1)NO [PX116211, (E)-N-[6-(Hydroxyamino)-6-oxohexyl]-4-phenyl-3-butenamide] | – | –
152 to 153 °C | O=C(/C=C/c1cccc(NC(=O)CCCc2ccccc2)c1)NO [PX116212, (E)-N-Hydroxy-3-{3-[(4-phenylbutanoyl)amino]phenyl}-2-propenamide] | 72% @ 500 nM | –
133 °C | COc1ccc(C(=O)NCCCCCC(=O)NO)cc1OC [PX116213, N-[6-(Hydroxyamino)-6-oxohexyl]-3,4-dimethoxybenzamide] | 48% @ 500 nM | –
130 to 131.5 °C | O=C(CCCCCNC(=O)Cc1c[nH]c2ccccc12)NO [PX116214, 6-(2-1H-lndol-3-yl-acetylamino)-hexanoic acid hydroxyamide] | 35% @ 500 nM | –
164 to 166 °C | O=C(CCCCCNC(=O)c1ccc(Br)cc1)NO [PX116215, 4-Bromo-N-(5-hydroxycarbamoyl-pentyl)-benzamide] | 70% @ 500 nM | –
121 to 122.5 °C | O=C(CCCCC(=O)NCCc1c[nH]c2ccccc12)NO [PX116217, Hexanedioic acid hydroxyamide [2-(1H-indol-3-yl)-ethyl]-amide] | 17% @ 500 nM | –
115 to 116.5 °C | O=C(CCCCCCC(=O)Nc1cccc2ccccc12)NO [PX116218, Octanedioic acid hydroxyamide naphthalen-1-ylamide] | – | IC50 [1, 3]: 33 nM
122 to 124 °C | O=C(CCCCCNC(=O)c1ccc(Br)o1)NO [PX116221, 5-Bromo-furan-2-carboxylic acid (5-hydroxycarbamoyl-pentyl)-amide] | 72% @ 500 nM | –
120 to 121.5 °C | O=C(CCCCCCC(=O)NCCc1cccc2ccccc12)NO [PX116224, Octanedioic acid hydroxyamide (2-naphthalen-1-yl-ethyl)-amide] | 78% @ 500 nM | –
– | O=C(/C=C/c1ccc(NC(=O)Cc2cccc3ccccc23)cc1)NO [PX116244, (E)-N-Hydroxy-3-(4-{[2-(1-naphthyl)acetyl]amino}phenyl)-2-propenamide] | – | IC50 [2]: < 310 nM; IC50 [1, 3]: 22 nM
– | O=C(/C=C/c1ccc(-c2cc(C(F)(F)F)cc(C(F)(F)F)c2)o1)NCCCCCC(=O)NO [PX117224, (E)-3-{5-[3,5-bis(trifluoromethyl)phenyl]-2-furyl}-N-[6-(hydroxyamino)-6-oxohexyl]2-propenamide] | 81% @ 500 nM | IC50 [2]: 26000 nM
– | O=C(/C=C/C=C/c1cccc2ccccc12)NCCCCCC(=O)NO [PX117237, (2E)(4E)-5-Naphthalen-1-yl-penta-2,4-dienoic acid (5-hydroxycarbamoylpentyl)amide] | – | IC50 [2]: 17000 nM; IC50 [1, 3]: 63 nM; IC50 ([1]; comparative tables, read-out: HeLa IC50): 63 nM
– | Cn1cccc1/C=C/C(=O)NCCCCCC(=O)NO [PX117239, E-3-(1-Methyl-1H-pyrrol-2-yl)-N-(5-hydroxycarbamoylpentyl)-acrylamide] | 85% @ 500 nM | IC50 [2]: 10000 nM
– | C/C(=C\C(=O)NCCCCCC(=O)NO)c1ccccc1 [PX117254, E-3-Phenylbut-2-enoic acid (5-hydroxycarbamoylpentyl)-amide] | – | IC50 [2]: 6600 nM; IC50 [1, 3]: 40 nM
– | O=C(/C=C/C=C/c1ccccc1Cl)NCCCCCC(=O)NO [PX117255, (2E)(4E)-5-(2-Chlorophenyl)penta-2,4-dienoic acid (5-hydroxycarbamoylpentyl)amide] | – | IC50 [2]: 18000 nM; IC50 [1, 3]: 50 nM
155 to 156.5 °C | O=C(CCCCCCC(=O)NC(c1ccccc1)c1ccccc1)NO [PX117417, N^1-benzhydryl-N^8-hydroxyoctanediamide] | 56% @ 500 nM | –
126 to 126.5 °C | O=C(CCCCCCC(=O)NCc1ccccc1)NO [PX117418, Octanedioic acid benzylamide hydroxyamide] | 39% @ 500 nM | –
113 to 115 °C | O=C(CCCCCNC(=O)Cc1csc2ccccc12)NO [PX117442, 6-(2-Benzothiophen-3-yl-acetylamino)-hexanoic acid hydroxyamide] | 31% @ 500 nM | –
